Data from ChEMBL document CHEMBL4825699, “Metabolic and conformational stabilization of a VEGF-mimetic beta-hairpin peptide by click-chemistry” (Eur J Med Chem, 2021).
Active and inactive are the calls of the source. The rule behind the calls is not given here.

Legend:
[1] = Metabolic stability of the compound in 50% human serum assessed as drug degradation incubated for 120 mins by RP-HPLC analysis; format: ADME, cell-free; settings: read-out: Drug degradation
HUVEC [2] = experiment: Binding affinity to VEGFR in human HUVEC assessed as induction of cell proliferation measured after 24 to 48 hrs by CyQuant NF Cell Proliferation assay; settings: dose 25-50 nM, time 24-48 hrs
[3] = Metabolic stability of the compound in 50% human serum assessed as half life by RP-HPLC analysis; format: ADME, cell-free
HUVEC [4] = experiment: Binding affinity to VEGFR in human HUVEC assessed as induction of cell proliferation at 50 nM measured after 48 hrs in presence of 250 nM VEGFR1D2 by CyQuant NF Cell Proliferation assay
HUVEC [5] = experiment: Cytotoxicity against human HUVEC assessed as reduction in cell viability at 50 nM measured after 48 hrs by CyQuant NF Cell Proliferation assay; format: cell-based; settings: 0.05 µM
HUVEC [6] = experiment: Binding affinity to VEGFR in human HUVEC assessed as induction of cell proliferation at 25 to 50 nM measured after 48 hrs by CyQuant NF Cell Proliferation assay relative to control; settings: dose 25-50 nM
HUVEC [7] = experiment: Pro-angiogenic activity in human HUVEC assessed as organization into capillary network formation by measuring increase in branch points number counting at 50 nM measured after 6 hrs by inverted microscopy relative to Ac-HPLW-NH2; format: functional
HUVEC [8] = experiment: Binding affinity to VEGFR in human HUVEC assessed as induction of cell proliferation at 25 to 50 nM measured after 48 hrs by CyQuant NF Cell Proliferation assay relative to Ac-HPLW-NH2; settings: dose 25-50 nM
HUVEC [9] = experiment: Pro-angiogenic activity in human HUVEC assessed as organization into capillary network formation by measuring increase in branch points number counting at 50 nM measured after 6 hrs by inverted microscopy relative to HPLW; format: functional
[10] = Metabolic stability of the compound in 50% human serum incubated for 120 mins by RP-HPLC analysis; format: ADME, cell-free; settings: read-out: Stabilty
HUVEC [11] = experiment: Binding affinity to VEGFR in human HUVEC assessed as induction of cell proliferation at 25 to 50 nM measured after 48 hrs by CyQuant NF Cell Proliferation assay relative to HPLW; settings: dose 25-50 nM

Compound	metabolised at 2 h [1] [%]	Activity (HUVEC [2])	half-life [3] [min]	Activity (HUVEC [4])	Activity (HUVEC [5])	Activity (HUVEC [6]) [%]	Activity (HUVEC [7]) [%]	Activity (HUVEC [8]) [%]	Activity (HUVEC [9]) [%]	remaining at 2 h [10] [%]	Activity (HUVEC [11]) [%]
H-KQLLWIRSGDRPWYYTS-OH	100	Dose-Dependent Effect	25	inactive	Non-Toxic	–	–	–	–	–	–
Ac-KQLLWIRSGDRPWYYTS-NH2	100	Dose-Dependent Effect	25	inactive	Non-Toxic	–	–	–	–	–	–
CC[C@H](C)[C@@H]1NC(=O)[C@@H](NC(=O)[C@H](CC(C)C)NC(=O)[C@H](CC(C)C)NC(=O)[C@H](CCC(N)=O)NC(=O)[C@H](CCCCN)NC(C)=O)CCCc2cn(nn2)CCC[C@@H](C(=O)N[C@@H](Cc2ccc(O)cc2)C(=O)N[C@@H](Cc2c[nH]c3ccccc23)C(=O)N[C@H](C(=O)N[C@@H](CO)C(N)=O)[C@@H](C)O)NC(=O)[C@@H]2CCCN2C(=O)[C@H](CCCNC(=N)N)NC(=O)[C@H](CC(=O)O)NC(=O)CNC(=O)[C@H](CO)NC(=O)[C@H](CCCNC(=N)N)NC1=O	–	Toxic	–	inactive	Non-Toxic	92	28	30	13	100	37
